Test results published in US9340840B2, “Use of selected lactic acid bacteria for reducing infantile colic” (Biogaia AB, priority 2006, dated 2016).

Tests used:
[1] = system: Breast-fed infants with a diagnosis of infantile colic; test: Selected probiotic strains versus Simethicone in the treatment of infantile colic (crying time, 28 days); format: in vivo, human; settings: for Crying time (mean minutes per day): N = 30 per group
From the text: Breast-fed infants with a diagnosis of infantile colic are recruited in the Department of Pediatric and Adolescence Science (Drottning Silvias University Hospital, Goteborg). Patients aged 21-90 days, adequate for gestational age with a birth weight between 2500 and 4000 g, with colic symptoms satisfying the Wessel's criteria, and arisen almost 6±1 days before the enrollment, are considered for inclusion in the study (Wessel M A, Cobb J C, Jackson E B, Harris G S, Detwiler A C. Paroxismal fussing in infancy, sometimes called “colic”. Pediatrics 1954; 14: 421-35). All infants enrolled are exclusively breast-fed in order to reduce variability in the intestinal microflora due to variations in the diet, which may in turn have influenced the response to the probiotic. Infants are excluded if they had clinical evidence of chronic illness or gastrointestinal disorders or if they had received either antibiotics or probiotics in the week preceding recruitment.
In this study, colicky infants are randomized to receive the probiotic or Simethicone in the following treatments:
L. reuteri is administered at a dose of 10^8 colony forming units (CFU) in 5 drops of a commercially available MCT-oil (medium chain tri-glyceride oil) suspension 30 min after feeding, once a day for 28 days. MCT oils occur naturally, and the most abundant source is coconut oil. Most MCT oil is refined from coconut oil. MCT oil is a clear light colored liquid with no flavor and low viscosity. This oil suspension is stable for 21 months at 2-8° C. (as documented by the manufacturer, BioGaia AB, Stockholm, Sweden) (alternative source of MCT oil is Akomed R, by Karlshamns AB, Karlshamn, Sweden). During the study, parents are instructed to keep the product in the refrigerator when not in use. Simethicone (S) was given at a dose of 60 mg/day in 3 mL of a commercially available solution (Mylicon Infants Gas Relief Drops, J&J, 7050 Camp Hill Rd., Fort Washington, Pa., 19034-2210, USA) after feeding, twice a day for 28 days. At the enrollment, all mothers are asked to follow a cows' milk-free diet as reported: avoidance of milk, yogurt, fresh and strong cheese, cream, butter, biscuits. Adherence to the diet is monitored with a diet diary maintained for all the treatment period. At day 7, 14, 21 and 28 one of the researches examined the compliance to this diet.
The day on which the pediatrician saw the infant for the first time is defined as Day-1. On this occasion each infant underwent a medical examination and the parents were interviewed in order to obtain background data concerning type of delivery, birth weight and gestational age, family history of gastrointestinal disease and atopy. In particular, the last one is considered positive if the infants had one or more family members (mother, father and/or older sibling) with atopic eczema, allergic rhinitis or asthma. Moreover, any signs and symptoms of atopic disease during the study period were recorded. Parents were also invited to record data concerning daily average crying time and number of colic episodes on the day after the recruitment (Day 0). The doctor randomly assigned the child to any of the study groups. Administration of study products began on Day 1.
Parents are given written information about the study and are asked to record daily number of inconsolable crying episodes and their duration, stool consistency and frequency as well as any observed side effects (constipation, vomiting, cutaneous reactions, etc) starting from Day 0 up to Day 28, using a structured diary. In order to ensure that all the parents noted crying time in a uniform way and to ensure that the infants are given the medication correctly, one of the researchers is always available by phone to help parents.
Each patient is re-examined by the same pediatrician on Days 1, 7, 14, 21 and 28.

[2] = system: colicky symptoms in breast-fed infants; settings: within 7 days of treatment; cited from earlier work

Substance: dimethylpolysiloxane [Simethicone]
- withdrawal because of any side effect related to the trial ([1]; 28 days treatment, 30 infants per group): No babies are withdrawn because of any side effect
- Crying time (mean minutes per day) ([1]; Day 0 (before administration), colicky infants): 205 minutes per day
- Crying time (mean minutes per day) ([1]; Day 1, colicky infants): 194 minutes per day
- Crying time (mean minutes per day) ([1]; Day 7, colicky infants): 172 minutes per day
- Crying time (mean minutes per day) ([1]; Day 14, colicky infants): 155 minutes per day
- Crying time (mean minutes per day) ([1]; Day 21, colicky infants): 148 minutes per day
- Crying time (mean minutes per day) ([1]; Day 28, colicky infants): 141 minutes per day
- response rate to the treatment [2]: 7%
